Results on 3 compounds are retold here after patent publication US8637528B2, “Use of PDE7 inhibitors for the treatment of movement disorders” (Omeros Corporation, priority 2007, dated 2014).

Assay [1] concerns the target PDE9A (Homo sapiens (Human), UniProt O76083). Kind of assay: PDE selectivity SPA assay, PDE9A. The class given is biochemical. The note with it: IC50 against PDE9A divided by IC50 against PDE7A.
Assay [2] addresses PDE7B (Homo sapiens (Human), UniProt Q9NP56). Kind of assay: PDE7 phosphodiesterase scintillation proximity assay (SPA), PDE7B. Particulars: for Fold Selectivity for PDE7A versus PDE7B: IC50 against PDE7B divided by IC50 against PDE7A; for 7A/7B Ratio: ratio of the PDE7B and PDE7A IC50 values; for selectivity for inhibition of the PDE7B enzyme as compared to the other PDEs: versus PDE1B, 2A, 3A, 4A, 5A, 8A, 9A, 10A, 11A. The assay is classed as biochemical.

Assay [3] deals with PDE10A (Mus musculus (Mouse), UniProt Q8CA95). Kind of assay: PDE selectivity SPA assay, PDE10A. The note with it: IC50 against murine PDE10A divided by IC50 against PDE7A. The assay is classed as biochemical. The procedure:
(§1) Phosphodiesterase activity was measured by a scintillation proximity assay (SPA, GE Healthcare: Product Code TRKQ7100) with [^3H]-cAMP as the substrate for PDEs 3A, 4A, 8A, or with [^3H]-cGMP as the substrate for PDEs 1B, 2A, 5A, 9A, 10A and 11A. Purified human PDE1B, PDE2A, PDE3A, PDE4A, PDE5A, PDE8A, PDE9A and PDE11A4 were obtained from BPS Bioscience, San Diego, Calif. Purified murine PDE10A was also obtained from BPS Biosciences. […] Therefore, the results obtained using murine PDE10A are believed to be representative of human PDE10.
(§2) The purified PDE enzymes were each diluted and stored in a solution containing 25 mM Tris-Cl (pH 8.0), 100 mM NaCl, 0.05% Tween 20, 50% glycerol, and 3 mM DTT. PDE assays were carried out in the following assay cocktail (final concentrations): 50 mM Tris-Cl (pH 8.0), 8.3 mM MgCl2, 1.7 mM EGTA, 0.5 mg/ml BSA, 2.5% DMSO and between 0.2 ng and 6 ng of the PDE protein (depending on the enzyme activity) in a final volume of 0.1 mL.
(§3) Reactions were initiated by addition of enzyme, incubated for 20 minutes at 30° C. and then terminated by the addition of 50 μl of SPA beads containing Zn^2+.
(§4) The mixture was shaken, and allowed to settle for 3 hours. Then the production of [^3H]-AMP or [^3H]-GMP from the substrate was quantitated by scintillation counting in a Wallac® plate counter. […]

Assay [4] relates to MPTP-treated mice. Kind of assay: inked paw stride length in the MPTP mouse model of Parkinson's disease, initial study (Example 5). Particulars: for effect on stride length of saline-treated mice, in words: 20 minutes after dosing. The assay is classed as in vivo. The procedure:
Adult male C57BL/6J; retired breeders, aged between 7-9 months (Jackson Laboratory, Bar Harbor, Me., USA), singly housed.
Mice received 2 subcutaneous injections of methylphenyltetrahydropyridine (“MPTP”) at a dose of 15 mg/kg (free base) with a 10-12 hour interval between injections. Control mice (sham lesion groups) were administered saline instead of MPTP.
Seven days after MPTP or saline administration, OM69 was administered to mice. For each dose, a 100× stock of OM69 compound was prepared in 100% DMSO and subsequently diluted 100× into phosphate buffered saline (PBS). Then 100 μL of this 1× solution was administered via intraperitoneal (IP) injection.
Prior to injection with MPTP or saline, animals were pre-trained to walk across a clean sheet of paper into their home cage without stopping. For assessment of stride length, animals had their forepaws placed in black ink and the length of forepaw steps during normal walking (in a straight line only) was measured. The animals were immediately put back into their home cage upon completion of the task. Stride length was determined by measuring the distance between each step on the same side of the body, measuring from the middle toe of the first step to the heel of the second step. An average of at least four clear steps was calculated.
Retired breeder male mice (12-15 per group, ˜48-60 animals total) were treated with either saline or 2×15 mg/kg MPTP (12 saline; […]) to induce a Parkinsonian state (neurochemical loss of dopamine with corresponding behavioral deficits).
On day eight stride length was measured again, and the control value for stride length was derived from the stride length of saline-treated animals. Following this measurement the first treatments with L-dopa (5 mg/kg) or OM69 (0.1 mg/kg) were administered on day eight, as shown in FIG. 8. Stride length was then measured for each animal 20 minutes after dosing. […] Dosing with the treatments shown in FIG. 8 was carried out on successive days, with stride length measured 20 minutes after each dosing. As mentioned above, it was previously determined from pharmacokinetic studies that OM69 is washed out of the mice within 12 hours after dosing, so the stride length test carried out 20 minutes after dosing was believed to be measuring the effect of only the compounds administered on the day of treatment.
On day nine Group 1 animals were treated with L-dopa (1 mg/kg), and Group 2 animals were treated with OM69 (0.01 mg/kg). On day ten the treatment groups were crossed over, and Group 1 animals were treated with OM69 (0.01 mg/kg), and Group 2 animals were treated with L-dopa (1 mg/kg).
As further shown in FIG. 8, for the combination studies, all the mice in Group 1 and Group 2 were combined. On day 11 following MPTP administration, all the animals in Group 1 and Group 2 (n=9) were treated with the combination of L-dopa (1 mg/kg) and OM69 (0.01 mg/kg), with the stride length test carried out 20 minutes after dosing. On day 12 following MPTP administration, all the animals in Group 1 and Group 2 (n=9) were treated with the combination of L-dopa (1 mg/kg) and OM69 (0.03 mg/kg) with the stride length test carried out 20 minutes after dosing. In these combination studies carried out on day 11 and day 12, the average stride length data from two of the nine animals was not scorable because these two animals either ran rather than walking at a normal speed, or they kept starting and stopping rather than walking continuously. Therefore, these two animals were excluded, and only the remaining seven animals (n=7) were scored for the combination studies.
To assess and compare the effects of OM69 and L-dopa at these doses, data from mice with equivalent dosing was pooled. Thus, the average stride length for animals treated with L-dopa (1 mg/kg) was determined using measurements obtained from all nine animals. […]

Assay [5] concerns the target PDE2A (Homo sapiens (Human), UniProt O00408). Kind of assay: PDE selectivity SPA assay, PDE2A. The assay is classed as biochemical. Particulars: IC50 against PDE2A divided by IC50 against PDE7A. The procedure:
as §1, §2, §3, §4

Chain of PDE7B (Q9NP56 107-450 limits assumed): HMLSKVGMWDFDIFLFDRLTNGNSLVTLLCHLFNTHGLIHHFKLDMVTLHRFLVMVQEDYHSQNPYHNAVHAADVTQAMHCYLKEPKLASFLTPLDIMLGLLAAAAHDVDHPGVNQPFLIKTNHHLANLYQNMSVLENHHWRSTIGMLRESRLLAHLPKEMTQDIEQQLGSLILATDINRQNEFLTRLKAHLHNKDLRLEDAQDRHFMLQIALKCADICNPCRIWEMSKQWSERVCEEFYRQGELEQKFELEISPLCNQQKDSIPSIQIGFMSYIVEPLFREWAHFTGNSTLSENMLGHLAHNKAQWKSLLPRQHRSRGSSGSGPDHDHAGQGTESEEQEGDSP
Chain of PDE10A (Q8CA95 whole entry): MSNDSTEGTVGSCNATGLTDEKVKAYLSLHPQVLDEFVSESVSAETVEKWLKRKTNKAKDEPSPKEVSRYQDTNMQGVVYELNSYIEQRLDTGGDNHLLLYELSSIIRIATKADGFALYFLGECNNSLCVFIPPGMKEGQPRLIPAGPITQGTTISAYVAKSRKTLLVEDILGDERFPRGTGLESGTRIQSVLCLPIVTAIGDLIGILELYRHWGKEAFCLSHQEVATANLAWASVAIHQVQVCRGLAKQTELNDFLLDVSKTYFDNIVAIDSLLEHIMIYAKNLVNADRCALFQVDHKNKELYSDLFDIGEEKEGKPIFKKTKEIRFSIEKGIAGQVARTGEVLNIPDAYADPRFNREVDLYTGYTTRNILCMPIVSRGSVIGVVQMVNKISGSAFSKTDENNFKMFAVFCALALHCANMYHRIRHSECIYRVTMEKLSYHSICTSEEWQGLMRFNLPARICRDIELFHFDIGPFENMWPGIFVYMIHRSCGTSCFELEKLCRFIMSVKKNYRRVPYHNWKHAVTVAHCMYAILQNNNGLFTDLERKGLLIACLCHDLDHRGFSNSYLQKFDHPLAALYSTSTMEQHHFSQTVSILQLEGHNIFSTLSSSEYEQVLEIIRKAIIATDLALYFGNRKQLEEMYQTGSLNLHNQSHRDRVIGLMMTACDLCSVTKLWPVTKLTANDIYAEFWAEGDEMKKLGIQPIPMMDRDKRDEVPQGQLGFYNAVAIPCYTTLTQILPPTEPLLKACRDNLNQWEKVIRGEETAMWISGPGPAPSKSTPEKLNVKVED
Chain of PDE2A (O00408 whole entry): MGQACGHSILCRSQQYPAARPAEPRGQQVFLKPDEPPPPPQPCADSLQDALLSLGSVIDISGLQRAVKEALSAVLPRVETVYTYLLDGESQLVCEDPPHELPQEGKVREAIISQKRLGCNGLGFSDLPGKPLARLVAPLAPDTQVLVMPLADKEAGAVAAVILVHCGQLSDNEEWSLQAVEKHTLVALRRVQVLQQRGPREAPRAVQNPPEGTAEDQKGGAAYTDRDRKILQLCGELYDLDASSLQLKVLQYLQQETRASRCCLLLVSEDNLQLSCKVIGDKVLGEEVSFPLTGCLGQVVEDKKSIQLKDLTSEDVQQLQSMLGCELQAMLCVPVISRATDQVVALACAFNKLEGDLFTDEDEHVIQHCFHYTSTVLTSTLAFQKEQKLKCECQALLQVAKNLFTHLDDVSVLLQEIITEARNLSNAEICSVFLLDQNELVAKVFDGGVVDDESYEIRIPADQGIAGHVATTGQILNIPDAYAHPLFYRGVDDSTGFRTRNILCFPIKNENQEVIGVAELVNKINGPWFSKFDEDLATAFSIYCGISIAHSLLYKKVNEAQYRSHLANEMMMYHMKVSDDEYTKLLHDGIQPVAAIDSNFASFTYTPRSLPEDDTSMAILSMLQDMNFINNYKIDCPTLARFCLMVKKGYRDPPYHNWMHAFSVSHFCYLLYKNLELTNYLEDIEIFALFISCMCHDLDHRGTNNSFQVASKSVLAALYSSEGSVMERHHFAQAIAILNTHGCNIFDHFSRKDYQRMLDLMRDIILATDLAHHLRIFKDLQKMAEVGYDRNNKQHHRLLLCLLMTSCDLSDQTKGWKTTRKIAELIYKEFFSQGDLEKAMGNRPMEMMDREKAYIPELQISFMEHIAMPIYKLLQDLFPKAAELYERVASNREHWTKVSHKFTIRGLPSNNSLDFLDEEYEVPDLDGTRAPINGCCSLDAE
Chain of PDE9A (O76083 whole entry): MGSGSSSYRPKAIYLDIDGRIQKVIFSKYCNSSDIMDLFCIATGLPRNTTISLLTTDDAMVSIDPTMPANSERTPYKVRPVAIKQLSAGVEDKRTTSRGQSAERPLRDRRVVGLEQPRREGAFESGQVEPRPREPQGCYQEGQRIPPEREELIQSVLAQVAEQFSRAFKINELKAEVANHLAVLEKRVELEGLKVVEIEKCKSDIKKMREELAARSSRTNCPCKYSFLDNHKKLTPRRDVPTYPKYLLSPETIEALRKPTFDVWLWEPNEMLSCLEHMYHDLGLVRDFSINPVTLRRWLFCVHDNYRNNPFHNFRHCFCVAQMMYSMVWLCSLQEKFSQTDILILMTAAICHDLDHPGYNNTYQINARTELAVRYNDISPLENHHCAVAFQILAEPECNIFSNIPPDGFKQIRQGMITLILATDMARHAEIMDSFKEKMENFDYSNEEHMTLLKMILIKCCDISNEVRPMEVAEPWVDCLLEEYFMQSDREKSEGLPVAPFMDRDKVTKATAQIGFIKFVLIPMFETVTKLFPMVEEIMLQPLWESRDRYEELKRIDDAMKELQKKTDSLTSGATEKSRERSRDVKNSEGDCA

Consider `COc1cc(N)ccc1-c1cc2c(c(=O)[nH]1)C(C1CCCCC1)N=[N+]2C` (stereo not drawn) [OM69], for which the “Fold Selectivity for PDE7A versus PDE9A” value in assay [1] is listed as more than 7700 fold. Besides, in assay [2], inhibition was half-maximal at 4.8 nM (IC50); the “potency of PDE7B inhibition, in words” value is recorded as “high potency”; the “Fold Selectivity for PDE7A versus PDE7B” value is on record as 3.7 fold; the “7A/7B Ratio” value is reported as 3.69. Also, in assay [2], the “selectivity for inhibition of the PDE7B enzyme as compared to the other PDEs” value worked out at 250 fold. The “Fold Selectivity for PDE7A versus PDE10A” value in assay [3] worked out at 1050 fold. Moreover, in assay [4] (MPTP-treated mice, OM69 0.01 mg/kg), the “effect on stride length, in words” value is reported as “only a small effect”. In assay [4] (MPTP-treated mice, OM69 0.1 mg/kg IP), the “effect on stride length, in words” value was “fully restore the stride length to that seen without MPTP treatment”. Also, the “L-dopa dose with the same effect on stride length, relative to the OM69 dose” value in assay [4] (OM69 0.1 mg/kg IP versus L-dopa 5 mg/kg) came out at 50 fold. Besides, the “effect on stride length of saline-treated mice, in words” value in assay [4] (OM69 0.1 mg/kg) was “Neither L-dopa (5 mg/kg) nor OM69 (0.1 mg/kg) altered the stride length of saline-treated mice”. Besides, the “Fold Selectivity for PDE7A versus PDE2A” value in assay [5] is 11,100 fold.

In the case of `N[C@@H](Cc1ccc(O)c(O)c1)C(=O)O` [L-dopa, levodopa, reference compound], the “effect on stride length, in words” value in assay [4] (MPTP-treated mice, L-dopa 1 mg/kg) is “only a small effect”; in assay [4] (MPTP-treated mice, L-dopa 5 mg/kg), “fully restore the stride length to that seen without MPTP treatment”. In assay [4] (MPTP-treated mice, L-dopa 1 and 5 mg/kg), the “dose dependence of the effect on stride length, in words” value was “increases their stride length in a dose-dependent manner”. Moreover, in assay [4] (L-dopa 5 mg/kg), the “effect on stride length of saline-treated mice, in words” value is “Neither L-dopa (5 mg/kg) nor OM69 (0.1 mg/kg) altered the stride length of saline-treated mice”.

With `O=C1Nc2c(Cl)ccc(OCCO)c2C2(CCCCC2)N1` [OM955], the “Fold Selectivity for PDE7A versus PDE9A” value in assay [1] is recorded as more than 192 fold. Besides, in assay [2], the half-inhibitory concentration (IC50) amounted to 106 nM; the “potency of PDE7B inhibition, in words” value is given as “moderate potency”; the “Fold Selectivity for PDE7A versus PDE7B” value came out at 2.0 fold; the “7A/7B Ratio” value came out at 2.05. In addition, in assay [2], the “selectivity for inhibition of the PDE7B enzyme as compared to the other PDEs” value is listed as “greater than 50 fold”. Moreover, the “Fold Selectivity for PDE7A versus PDE10A” value in assay [3] was determined as 379 fold. Further, the “Fold Selectivity for PDE7A versus PDE2A” value in assay [5] is on record as 209 fold.
